Results from paper PMC10065799, “High-throughput profiling of sequence recognition by tyrosine kinases and SH2 domains using bacterial peptide display” (eLife, 2023).

Biological target: T1, c-Abl kinase domain (Mus musculus, UniProt P00520)
T1 sequence (P00520 242-493 limits assumed): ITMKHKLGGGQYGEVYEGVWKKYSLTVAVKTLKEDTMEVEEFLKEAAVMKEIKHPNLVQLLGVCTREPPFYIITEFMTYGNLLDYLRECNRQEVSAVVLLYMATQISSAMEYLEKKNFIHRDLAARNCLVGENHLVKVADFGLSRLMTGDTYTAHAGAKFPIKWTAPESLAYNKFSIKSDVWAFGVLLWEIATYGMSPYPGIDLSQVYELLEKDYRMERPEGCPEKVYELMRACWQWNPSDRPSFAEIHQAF
Assay: pTyr-Var library bacterial peptide display kinase screen (enrichment scores)
Type: biochemical
Conditions: variant versus reference peptide

DRVALYVAREG [AACS_Y117_I118V]
c-Abl difference (mean log2 variant - mean log2 reference): -0.3292
